How the values were obtained:
[1] = molecular target: T1, CjapOBP2 (Cybister japonicus, UniProt A0A1Q1N694); assay: Competitive fluorescence binding assay with 1-NPN as reporter; details: protein 5 μM, 1-NPN 2 μM, competitor up to 16 μM
Source text: (§1) To characterize the ligand-binding properties of the two OBPs, we performed fluorescence binding assays with several chemicals having different structures using N-phenyl-1-naphthylamine (1-NPN) as a fluorescent reporter. In the absence of any information about potential semiochemicals for this insect, as well as for related species, we selected some common plant volatiles, such as citral, coniferyl aldehyde, eugenol and 2-isobutyl-3-mthoxypyrazine, and structurally similar compounds. 1-NPN binds CjapOBP1 and CjapOBP2 with dissociation constants of 3.3 and 2.1 μM respectively (Fig. 5A). Among the ligands tested, we identified a single good ligand for each protein, citral for CjapOBP1 and coniferyl aldehyde for CjapOBP2 (Fig. 5B,C).
(§2) Figure 5 Affinity of CjapOBPs to candidate chemical ligands. (A) Both CjapOBP1 and CjapOBP2 bind the fluorescent probe 1-NPN, with dissociation constants of 3.3 μM and 2.1 μM, respectively. (B) Competitive binding curves of selected ligands to the two CjapOBPs. Mixtures of proteins (5 μM) and 1-NPN (2 μM) were titrated with 1mM solutions of the ligands in methanol. […] (C) The chemical structures of the chemicals applied.
(§3) To measure the affinity of the fluorescent ligand N-phenyl-1-naphthylamine (1-NPN), a 2 μM solution of the protein in 50 mM Tris-HCl (pH 7.4) was titrated with aliquots of 1 mM 1-NPN in methanol to final concentrations of 1–16 μM. The probe was excited at 337 nm, and emission spectra were recorded between 380 and 450 nm. The affinity of other ligands was measured in competitive binding assays, using the protein and the fluorescent reporter 1-NPN at the concentration of 5 μM and 2 μM respectively, while increasing the final concentration of each competitor up to 16 μM. Dissociation constants for 1-NPN were evaluated from Scatchard plots of the binding data, and other ligands were calculated from the corresponding IC50 values, using the equation: KD = [IC50]/1+[1-NPN]/K1-NPN, [1-NPN] being the free concentration of 1-NPN and K1-NPN being the dissociation constant of the complex protein/1-NPN.

[2] = molecular target: T2, CjapOBP1 (Cybister japonicus, UniProt A0A1Q1N696); assay: as above; details: protein 5 μM, 1-NPN 2 μM, competitor up to 16 μM
T2 sequence (A0A1Q1N696 17-136): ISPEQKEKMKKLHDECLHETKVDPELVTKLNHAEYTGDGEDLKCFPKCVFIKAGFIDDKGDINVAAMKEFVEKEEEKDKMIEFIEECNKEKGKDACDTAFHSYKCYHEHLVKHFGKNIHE
Source text: as §1, §2, §3

[3] = molecular target: T2, CjapOBP1; assay: Fluorescence binding assay, direct titration with 1-NPN; details: recombinant CjapOBP1, 2 μM protein in 50 mM Tris-HCl pH 7.4, titrated with 1-NPN 1–16 μM; Scatchard plot; read-out: dissociation constant
Source text: as §1, §2
(§4) To measure the affinity of the fluorescent ligand N-phenyl-1-naphthylamine (1-NPN), a 2 μM solution of the protein in 50 mM Tris-HCl (pH 7.4) was titrated with aliquots of 1 mM 1-NPN in methanol to final concentrations of 1–16 μM. […]

[4] = molecular target: T1, CjapOBP2; assay: as above; details: recombinant CjapOBP2, 2 μM protein in 50 mM Tris-HCl pH 7.4, titrated with 1-NPN 1–16 μM; Scatchard plot; read-out: dissociation constant
Source text: as §1, §2, §4

T1 sequence (A0A1Q1N694 entry or part of it): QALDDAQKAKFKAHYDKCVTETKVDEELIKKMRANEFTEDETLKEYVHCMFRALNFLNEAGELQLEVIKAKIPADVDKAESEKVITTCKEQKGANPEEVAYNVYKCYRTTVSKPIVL

Row | SMILES | binding to CjapOBP2 (displacement of 1-NPN) [1] | further results
1 | CO/C(C=O)=C\c1ccccc1 [α-methoxycinnamaldehyde] | did not show appreciable binding | 
2 | CC(C)=CCCC(C)=CC=O (mixture of isomers) [citral] |  | binding to CjapOBP1 (displacement of 1-NPN) [2]: good ligand
3 | COc1cc(/C=C/C=O)ccc1O [coniferyl aldehyde] | good ligand | 
4 | COc1cc(CCC(=O)O)ccc1O [dihydroferulic acid] | did not show appreciable binding | 
5 | C=CCc1ccc(O)c(OC)c1 [eugenol] | did not show appreciable binding | 
6 | c1ccc(Nc2cccc3ccccc23)cc1 [1-NPN, N-phenyl-1-naphthylamine] |  | Kd [3]: 3.3 µM; Kd [4]: 2100 nM

Reference: PMC4992826, “Male tarsi specific odorant-binding proteins in the diving beetle Cybister japonicus sharp” (Scientific Reports, 2016)
